From ChEMBL document CHEMBL1681742, “Novel second generation analogs of eribulin. Part I: Compounds containing a lipophilic C32 side chain overcome P-glycoprotein susceptibility” (Bioorg Med Chem Lett, 2011)
pIC50: −log10 of the molar value.

Key:
[1] = Cytotoxicity against human IMR90 cells up to 1 uM; type: cell-based; settings: imr-90
[2] = Antiproliferative activity against P-gp overexpressing human MES-SA/Dx5-Rx1 cells assessed as growth inhibition; type: functional
DLD-1 = experiment: Antiproliferative activity against human DLD1 cells assessed as growth inhibition; type: functional, cell-based
HCT-15 = experiment: Antiproliferative activity against human HCT15 cells assessed as growth inhibition; type: functional, cell-based
[3] = Fold resistance, ratio of IC50 for antiproliferative activity for P-gp overexpressing human MES-SA/Dx5-Rx1cells to IC50 for antiproliferative activity for human MES-SA cells
[4] = Antiproliferative activity against human MES-SA cells assessed as growth inhibition; type: functional, cell-based

Row | SMILES | pIC50 (DLD-1) | pIC50 (HCT-15) | Activity [1] | pIC50 [2] | Ratio IC50 [3] | pIC50 [4]
1 | C=C1C[C@@H]2CC[C@@]34C[C@H]5O[C@H]6[C@@H](O3)[C@H]3O[C@H](CC[C@@H]3O[C@H]6[C@H]5O4)CC(=O)C[C@@H]3[C@@H](OC)[C@@H](C[C@@H](CO)OC)O[C@H]3C[C@H]3O[C@@H](CC[C@@H]1O2)C[C@@H](C)C3=C | 9.12 | 9.17 | Non-toxic | 7.95 | 37.73 | 9.52
2 | C=C1C[C@@H]2CC[C@@]34C[C@H]5O[C@H]6[C@@H](O3)[C@H]3O[C@H](CC[C@@H]3O[C@H]6[C@H]5O4)CC(=O)C[C@@H]3[C@@H](OC)[C@@H](C[C@H](O)CO)O[C@H]3C[C@H]3O[C@@H](CC[C@@H]1O2)C[C@@H](C)C3=C | 9.27 | 9.66 | Non-toxic | 8.19 | 216.5 | 10.52
3 | CC(=O)O[C@H]1C(=O)[C@@]2(C)[C@H]([C@H](OC(=O)c3ccccc3)[C@]3(O)C[C@H](OC(=O)[C@H](O)[C@@H](NC(=O)c4ccccc4)c4ccccc4)C(C)=C1C3(C)C)[C@]1(OC(C)=O)CO[C@@H]1C[C@@H]2O [PACLITAXEL] |  |  | Non-toxic | < 6.00 | >338 | 8.53
4 | C=C1C[C@@H]2CC[C@@]34C[C@H]5O[C@H]6[C@@H](O3)[C@H]3O[C@H](CC[C@@H]3O[C@H]6[C@H]5O4)CC(=O)C[C@@H]3[C@@H](OC)[C@@H](C[C@H]4COCCO4)O[C@H]3C[C@H]3O[C@@H](CC[C@@H]1O2)C[C@@H](C)C3=C | 9.06 | 8.91 | Non-toxic | 7.64 | 22.96 | 9.00
5 | COc1cccc2c1C(=O)c1c(O)c3c(c(O)c1C2=O)C[C@@](O)(C(=O)CO)C[C@@H]3O[C@H]1C[C@H](N)[C@H](O)[C@H](C)O1 [DOXORUBICIN] |  | 6.81 | Non-toxic | 5.57 | 134 | 7.58
6 | C#CC[C@H]1O[C@H]2C[C@H]3O[C@@H](CC[C@@H]4O[C@@H](CC[C@@]56C[C@H]7O[C@H]8[C@@H](O5)[C@H]5O[C@H](CC[C@@H]5O[C@H]8[C@H]7O6)CC(=O)C[C@@H]2[C@H]1OC)CC4=C)C[C@@H](C)C3=C | 8.84 | 9.08 | Non-toxic | 8.70 | 2.75 | 9.14
7 | C=C1C[C@@H]2CC[C@@]34C[C@H]5O[C@H]6[C@@H](O3)[C@H]3O[C@H](CC[C@@H]3O[C@H]6[C@H]5O4)CC(=O)C[C@@H]3[C@@H](OC)[C@@H](C[C@@H](CN=[N+]=[N-])OCc4ccccc4)O[C@H]3C[C@H]3O[C@@H](CC[C@@H]1O2)C[C@@H](C)C3=C | 7.98 | 8.15 | Non-toxic | 7.44 | 7.6 | 8.32
8 | CC[C@]1(O)C[C@@H]2CN(CCc3c([nH]c4ccccc34)[C@@](C(=O)OC)(c3cc4c(cc3OC)N(C)[C@H]3[C@@](O)(C(=O)OC)[C@H](OC(C)=O)[C@]5(CC)C=CCN6CC[C@]43[C@@H]65)C2)C1 [VINBLASTINE] |  | 7.55 | Non-toxic | 6.36 | 224.18 | 8.64
9 | C=C1C[C@@H]2CC[C@@]34C[C@H]5O[C@H]6[C@@H](O3)[C@H]3O[C@H](CC[C@@H]3O[C@H]6[C@H]5O4)CC(=O)C[C@@H]3[C@@H](OC)[C@@H](C[C@H](O)COC(C)=O)O[C@H]3C[C@H]3O[C@@H](CC[C@@H]1O2)C[C@@H](C)C3=C |  |  | Non-toxic | 8.46 | 33 | 9.96
10 | C=C1C[C@@H]2CC[C@@]34C[C@H]5O[C@H]6[C@@H](O3)[C@H]3O[C@H](CC[C@@H]3O[C@H]6[C@H]5O4)CC(=O)C[C@@H]3[C@@H](OC)[C@@H](CC)O[C@H]3C[C@H]3O[C@@H](CC[C@@H]1O2)C[C@@H](C)C3=C |  |  | Non-toxic | 8.87 | 1.81 | 8.97

Second part, led by results:

Row | pIC50 (DLD-1) | pIC50 (HCT-15) | SMILES | Activity [1] | pIC50 [2] | Ratio IC50 [3] | pIC50 [4]
11 | 9.33 | 9.40 | C=C1C[C@@H]2CC[C@@]34C[C@H]5O[C@H]6[C@@H](O3)[C@H]3O[C@H](CC[C@@H]3O[C@H]6[C@H]5O4)CC(=O)C[C@@H]3[C@@H](OC)[C@@H](CCCO)O[C@H]3C[C@H]3O[C@@H](CC[C@@H]1O2)C[C@@H](C)C3=C | Non-toxic | 8.25 | 18.88 | 9.52
12 | 9.35 | 9.40 | C=C1C[C@@H]2CC[C@@]34C[C@H]5O[C@H]6[C@@H](O3)[C@H]3O[C@H](CC[C@@H]3O[C@H]6[C@H]5O4)CC(=O)C[C@@H]3[C@@H](OC)[C@@H](CC(=O)OCC)O[C@H]3C[C@H]3O[C@@H](CC[C@@H]1O2)C[C@@H](C)C3=C | Non-toxic | 8.93 | 3.21 | 9.43
13 | 9.08 | 9.36 | C=C1C[C@@H]2CC[C@@]34C[C@H]5O[C@H]6[C@@H](O3)[C@H]3O[C@H](CC[C@@H]3O[C@H]6[C@H]5O4)CC(=O)C[C@@H]3[C@@H](OC)[C@@H](CC(=O)OC)O[C@H]3C[C@H]3O[C@@H](CC[C@@H]1O2)C[C@@H](C)C3=C | Non-toxic | 8.83 | 4.23 | 9.46
14 | 9.42 | 9.62 | C=C1C[C@@H]2CC[C@@]34C[C@H]5O[C@H]6[C@@H](O3)[C@H]3O[C@H](CC[C@@H]3O[C@H]6[C@H]5O4)CC(=O)C[C@@H]3[C@@H](OC)[C@@H](CCOC)O[C@H]3C[C@H]3O[C@@H](CC[C@@H]1O2)C[C@@H](C)C3=C | Non-toxic | 9.11 | 4.08 | 9.72
15 | 8.98 | 9.21 | C=C1C[C@@H]2CC[C@@]34C[C@H]5O[C@H]6[C@@H](O3)[C@H]3O[C@H](CC[C@@H]3O[C@H]6[C@H]5O4)CC(=O)C[C@@H]3[C@@H](OC)[C@@H](C[C@@H](CC#N)OC)O[C@H]3C[C@H]3O[C@@H](CC[C@@H]1O2)C[C@@H](C)C3=C | Non-toxic | 8.41 | 9.86 | 9.40
16 | 9.70 | 9.66 | C=CCO[C@H](CO)C[C@H]1O[C@H]2C[C@H]3O[C@@H](CC[C@@H]4O[C@@H](CC[C@@]56C[C@H]7O[C@H]8[C@@H](O5)[C@H]5O[C@H](CC[C@@H]5O[C@H]8[C@H]7O6)CC(=O)C[C@@H]2[C@H]1OC)CC4=C)C[C@@H](C)C3=C | Non-toxic | 8.38 | 17.19 | 9.62
17 | 9.11 | 9.32 | C=C1C[C@@H]2CC[C@@]34C[C@H]5O[C@H]6[C@@H](O3)[C@H]3O[C@H](CC[C@@H]3O[C@H]6[C@H]5O4)CC(=O)C[C@@H]3[C@@H](OC)[C@@H](C[C@@H](CN=[N+]=[N-])OC)O[C@H]3C[C@H]3O[C@@H](CC[C@@H]1O2)C[C@@H](C)C3=C | Non-toxic | 8.73 | 4.19 | 9.36
18 | 9.17 | 9.21 | C=C1C[C@@H]2CC[C@@]34C[C@H]5O[C@H]6[C@@H](O3)[C@H]3O[C@H](CC[C@@H]3O[C@H]6[C@H]5O4)CC(=O)C[C@@H]3[C@@H](OC)[C@@H](CC(=O)COC)O[C@H]3C[C@H]3O[C@@H](CC[C@@H]1O2)C[C@@H](C)C3=C | Non-toxic | 8.53 | 6.7 | 9.36
19 | 9.57 | 9.64 | C=C1C[C@@H]2CC[C@@]34C[C@H]5O[C@H]6[C@@H](O3)[C@H]3O[C@H](CC[C@@H]3O[C@H]6[C@H]5O4)CC(=O)C[C@@H]3[C@@H](OC)[C@@H](C[C@H](O)COCC)O[C@H]3C[C@H]3O[C@@H](CC[C@@H]1O2)C[C@@H](C)C3=C | Non-toxic | 8.65 | 11.2 | 9.70
20 | 9.36 | 9.49 | C=C1C[C@@H]2CC[C@@]34C[C@H]5O[C@H]6[C@@H](O3)[C@H]3O[C@H](CC[C@@H]3O[C@H]6[C@H]5O4)CC(=O)C[C@@H]3[C@@H](OC)[C@@H](C[C@@H](COC(C)=O)OC(C)=O)O[C@H]3C[C@H]3O[C@@H](CC[C@@H]1O2)C[C@@H](C)C3=C | Non-toxic | 8.56 | 8.78 | 9.49
